Laboratory results from ChEMBL document CHEMBL3400085, “New cytochalasins from medicinal macrofungus Crodyceps taii and their inhibitory activities against human cancer cells” (Bioorg Med Chem Lett, 2015).
pIC50: −log10 of the molar value.

How the values were obtained:
MRC5 = test: Cytotoxicity against human MRC5 cells assessed as inhibition of proliferation by SRB method; type: cell-based
A549 = test: Cytotoxicity against human A549 cells assessed as inhibition of proliferation by SRB method; type: functional, cell-based
[1] = Cytotoxicity against human HL-7702 cells assessed as inhibition of proliferation by SRB method; type: functional, cell-based; conditions: L02
[2] = Cytotoxicity against human 95-D cells assessed as inhibition of proliferation by SRB method; type: functional, cell-based

SMILES	pIC50 (MRC5)	pIC50 (A549)	pIC50 [1]	pIC50 [2]
CC1=C(C)[C@H]2[C@H](Cc3ccccc3)NC(=O)[C@]23[C@H](O)/C=C/[C@H](C)C(=O)[C@@H](C)C/C=C/[C@H]3C1=O	< 3.70	4.49	4.53	4.63
C=C1[C@@H](C)[C@H]2[C@H](Cc3ccccc3)NC(=O)[C@]23[C@H](O)/C=C/[C@@](C)(O)C(=O)[C@@H](C)C/C=C/[C@H]3[C@@H]1O [ZYGOSPORIN D]	< 3.70	4.78	4.52	5.39
CC1=C(C)[C@H]2[C@H](Cc3ccccc3)NC(=O)[C@]23[C@H](O)/C=C/[C@H](C)C(=O)[C@@H](C)C/C=C/[C@H]3[C@@H]1O	< 3.70	4.77	4.45	4.58
CC1=C(C)[C@H]2[C@H](Cc3ccccc3)NC(=O)[C@]23[C@H](O)/C=C/[C@@](C)(O)C(=O)[C@@H](C)C/C=C/[C@H]3[C@@H]1O [DEACETYLCYTOCHALASIN C]	< 3.70	4.87	4.51	5.44
CC1=C[C@@H]2/C=C/C[C@H](C)C(=O)[C@](C)(O)/C=C/[C@@H](O)[C@]23C(=O)N[C@@H](Cc2ccccc2)[C@@H]3[C@H]1C	< 3.70	4.70	4.51	4.68
